In the NIST ThermoML archive (doi:10.1016/j.jct.2010.11.017):

What was measured:
[1] = mn = molality of the nth substance listed, in mol/kg; settings: 101 kPa, Liquid, m2 = 0; for viscosity: Capillary tube (Ostwald / Ubbelohde) method; for speed of sound: Frequency=3 MHz, Linear variable-path acoustic interferometer
[2] = wn = mass fraction of the nth substance listed; settings: 101 kPa, Liquid, w2 = 0; for viscosity: Capillary tube (Ostwald / Ubbelohde) method; for speed of sound: Frequency=3 MHz, Linear variable-path acoustic interferometer

O [water] + N[C@@H](Cc1c[nH]cn1)C(=O)O
[1]
Settings | speed of sound [m/s] | viscosity [mPa·s]
293.15 K | 1483.6 | 1.002
298.15 K | – | 0.8903
303.15 K | 1508.4 | 0.7973
308.15 K | – | 0.719
313.15 K | 1526.8 | 0.6526
318.15 K | 1533 | 0.5972

Settings | mass density [kg/m3]
[1], 308.15 K, Pycnometric method | 994.07

O [water] + O=C[C@H](O)[C@@H](O)[C@H](O)[C@H](O)CO
[2]
Settings | speed of sound [m/s] | viscosity [mPa·s]
293.15 K | 1483.6 | 1.002
298.15 K | – | 0.8903
303.15 K | 1508.4 | 0.7973
308.15 K | – | 0.719
313.15 K | 1526.8 | 0.6526
318.15 K | 1533 | 0.5972

Settings | mass density [kg/m3]
[2], 308.15 K, Pycnometric method | 994.07
